Measured values as given in PubChem BioAssay AID192 (DTP/NCI, 2004).
Values joined by “and” are separate entries in the source; they are usually repeats but may differ in a detail not shown here. Equal values may be shown once. Toxic doses and inconclusive results are not listed. Peptide text beside a SMILES is read from it. * marks the point of attachment. Boc = CC(C)(C)OC(=O)*; NHNH2 = NN*

Test system: BDF1 mice, B16 melanoma ip, median survival T/C
Test: NCI In Vivo Anticancer Drug Screen. Data for tumor model B16 Melanoma (intraperitoneal) in B6D2F1 (BDF1) mice
Settings: endpoint: median survival time, higher = longer survival
Summary of the method: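 Vehicle-treated animals serve as the reference (C); treated animals (T) are scored for survival or tumor size after tumor transplantation.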

[1] = dose: 2.5 mg/kg/injection, schedule: Q01DX009 (ip), vehicle: Klucel (hydroxypropylcellulose) (HPC)
[2] = dose: 5.0 mg/kg/injection, schedule: Q01DX009 (ip), vehicle: Klucel (hydroxypropylcellulose) (HPC)
[3] = dose: 10.0 mg/kg/injection, schedule: Q01DX009 (ip), vehicle: Klucel (hydroxypropylcellulose) (HPC)
[4] = dose: 50.0 mg/kg/injection, schedule: Q01DX009 (ip), vehicle: Klucel (hydroxypropylcellulose) (HPC)
[5] = dose: 100.0 mg/kg/injection, schedule: Q01DX009 (ip), vehicle: Klucel (hydroxypropylcellulose) (HPC)
[6] = dose: 200.0 mg/kg/injection, schedule: Q01DX009 (ip), vehicle: Klucel (hydroxypropylcellulose) (HPC)
[7] = dose: 25.0 mg/kg/injection, schedule: Q01DX009 (ip), vehicle: saline
[8] = dose: 50.0 mg/kg/injection, schedule: Q01DX009 (ip), vehicle: saline
[9] = dose: 100.0 mg/kg/injection, schedule: Q01DX009 (ip), vehicle: saline
[10] = dose: 50.0 mg/kg/injection, schedule: Q01DX009 (ip), vehicle: saline with Tween-80
[11] = dose: 100.0 mg/kg/injection, schedule: Q01DX009 (ip), vehicle: saline with Tween-80
[12] = dose: 12.5 mg/kg/injection, schedule: Q01DX009 (ip), vehicle: saline with Tween-80
[13] = dose: 25.0 mg/kg/injection, schedule: Q01DX009 (ip), vehicle: saline with Tween-80
[14] = dose: 6.25 mg/kg/injection, schedule: Q01DX009 (ip), vehicle: saline
[15] = dose: 12.5 mg/kg/injection, schedule: Q01DX009 (ip), vehicle: saline
[16] = dose: 400.0 mg/kg/injection, schedule: Q01DX009 (ip), vehicle: Klucel (hydroxypropylcellulose) (HPC)
[17] = dose: 200.0 mg/kg/injection, schedule: Q01DX009 (ip), vehicle: saline with Tween-80
[18] = dose: 400.0 mg/kg/injection, schedule: Q01DX009 (ip), vehicle: saline with Tween-80
[19] = dose: 25.0 mg/kg/injection, schedule: Q01DX009 (ip), vehicle: Klucel (hydroxypropylcellulose) (HPC)

O=C(CCN1CC1)Nc1cccc(NC(=O)CCN2CC2)c1
T/C [1]: 156 % of control
T/C [2]: 153 % of control and 173 % of control
T/C [3]: 211 % of control and 268 % of control

CC1CCN(c2ccc([N+](=O)[O-])cc2[N+](=O)[O-])CC1
T/C [4]: 100 % of control
T/C [5]: 100 % of control
T/C [6]: 112 % of control

Brc1cc(Br)c(-c2c(Br)cc(Br)cc2Br)c(Br)c1
T/C [5]: 102 % of control
T/C [6]: 88 % of control

NN1CCCC1
T/C [7]: 110 % of control
T/C [8]: 102 % of control
T/C [9]: 94 % of control

CCCCCCCCCNC(=O)Nc1cccc(Cl)c1C
T/C [10]: 99 % of control
T/C [11]: 91 % of control

CC1CCCC(C)N1NC1=NCCO1 (stereo not drawn)
T/C [12]: 97 % of control
T/C [13]: 102 % of control
T/C [10]: 97 % of control

CC(=Nc1ccccc1)C1=C(O)C(Cc2ccc(O)cc2)NC1=O (stereo not drawn)
T/C [12]: 111 % of control

Clc1cc(CBr)c(Cl)c(Cl)c1CBr
T/C (dose: 1.56 mg/kg/injection, schedule: Q01DX009 (ip), vehicle: Klucel (hydroxypropylcellulose) (HPC)): 94 % of control
T/C (dose: 3.12 mg/kg/injection, schedule: Q01DX009 (ip), vehicle: Klucel (hydroxypropylcellulose) (HPC)): 88 % of control
T/C (dose: 6.25 mg/kg/injection, schedule: Q01DX009 (ip), vehicle: Klucel (hydroxypropylcellulose) (HPC)): 94 % of control
T/C (dose: 12.5 mg/kg/injection, schedule: Q01DX009 (ip), vehicle: Klucel (hydroxypropylcellulose) (HPC)): 92 % of control

CC1CC(C)(O)C2C3(C)CCCC2(COC3=O)C12CCC1(CCOC1=O)O2 (stereo not drawn)
T/C (dose: 2.5 mg/kg/injection, schedule: Q01DX009 (ip), vehicle: saline with Tween-80): 102 % of control
T/C (dose: 5.0 mg/kg/injection, schedule: Q01DX009 (ip), vehicle: saline with Tween-80): 94 % of control
T/C (dose: 10.0 mg/kg/injection, schedule: Q01DX009 (ip), vehicle: saline with Tween-80): 98 % of control

CC(C)CC(NC(=O)C(Cc1c[nH]c2ccccc12)NC(=O)OC(C)(C)C)C(=O)NN (stereo not drawn) (Boc-Trp-Leu-NHNH2; configuration not given here)
T/C [7]: 88 % of control
T/C [8]: 98 % of control
T/C [9]: 88 % of control
T/C (dose: 200.0 mg/kg/injection, schedule: Q01DX009 (ip), vehicle: saline): 87 % of control

CCN(CC)S(=O)(=O)c1ccc(OC)c(N)c1
T/C [13]: 107 % of control
T/C [10]: 100 % of control
T/C (dose: 50.0 mg/kg/injection, schedule: Q04DX003 (ip), vehicle: saline with Tween-80): 104 % of control
T/C [11]: 105 % of control
T/C (dose: 100.0 mg/kg/injection, schedule: Q04DX003 (ip), vehicle: saline with Tween-80): 104 % of control

CNCCCN(C)CCCNC
T/C [14]: 121 % of control
T/C [15]: 109 % of control
T/C [7]: 96 % of control and 111 % of control

C(/C=C/c1ccccc1)=Nc1ccc2c(c1)Cc1ccccc1-2
T/C [5]: 96 % of control
T/C [6]: 90 % of control
T/C [16]: 87 % of control

O=c1[nH]c(=O)n(C2CC(O)C(CO)O2)cc1I (stereo not drawn)
T/C [13]: 106 % of control
T/C [10]: 118 % of control
T/C [11]: 123 % of control
T/C [17]: 116 % of control
T/C [18]: 120 % of control
T/C (dose: 800.0 mg/kg/injection, schedule: Q01DX009 (ip), vehicle: saline with Tween-80): 150 % of control

O=S(=O)(OCC(COS(=O)(=O)c1ccccc1)(COS(=O)(=O)c1ccccc1)COS(=O)(=O)c1ccccc1)c1ccccc1
T/C [10]: 110 % of control
T/C [11]: 97 % of control
T/C [17]: 110 % of control

Cc1ccc(C(=O)/C(=C/c2ccccc2)c2ccccc2)cc1
T/C (dose: 100.0 mg/kg/injection, schedule: Q04DX003 (ip), vehicle: Klucel (hydroxypropylcellulose) (HPC)): 113 % of control
T/C (dose: 200.0 mg/kg/injection, schedule: Q04DX003 (ip), vehicle: Klucel (hydroxypropylcellulose) (HPC)): 113 % of control
T/C (dose: 400.0 mg/kg/injection, schedule: Q04DX003 (ip), vehicle: Klucel (hydroxypropylcellulose) (HPC)): 104 % of control

CO[C@H](/C(C)=C/C=C/C(C)=C/c1coc(C)n1)[C@H](C)[C@H]1C[C@@H](O)[C@@]2(C)O[C@H]2/C=C/[C@@H](C)[C@@H]2C[C@@H](CC(=O)O2)C[C@H]2O[C@@H]2C(=O)O1
T/C (dose: 0.4 mg/kg/injection, schedule: Q01DX009 (ip), vehicle: Klucel (hydroxypropylcellulose) (HPC)): 153 % of control
T/C (dose: 0.5 mg/kg/injection, schedule: Q01DX009 (sc), vehicle: Klucel (hydroxypropylcellulose) (HPC)): 181 % of control

Oc1cc(Br)ccc1C=Nc1ccc(N2CCCCC2)cc1
T/C [5]: 106 % of control
T/C [6]: 93 % of control
T/C [16]: 93 % of control

Cc1c2ccc3ccccc3c2c[n+]2ccccc12
T/C (dose: 1.25 mg/kg/injection, schedule: Q01DX009 (ip), vehicle: Klucel (hydroxypropylcellulose) (HPC)): 98 % of control
T/C [1]: 98 % of control
T/C [2]: 111 % of control
T/C [3]: 108 % of control
T/C (dose: 20.0 mg/kg/injection, schedule: Q01DX009 (ip), vehicle: Klucel (hydroxypropylcellulose) (HPC)): 102 % of control

O=[N+]([O-])O.[NH-]C1CCCCC1[NH-].[NH-]C1CCCCC1[NH-].[OH-].[OH-].[Pt+4].[Pt+4] (stereo not drawn)
T/C (dose: 0.25 mg/kg/injection, schedule: Q01DX009 (ip), vehicle: water): 110 % of control and 111 % of control
T/C (dose: 0.5 mg/kg/injection, schedule: Q01DX009 (ip), vehicle: water): 120 % of control and 124 % of control

CS(=O)(=O)OCCCCCCCCCOS(C)(=O)=O
T/C [19]: 94 % of control
T/C [4]: 88 % of control
T/C [5]: 102 % of control

Cc1cccc(Cl)c1NC(=O)Cn1cccc1
T/C [19]: 108 % of control
T/C [4]: 108 % of control
T/C [5]: 118 % of control

Clc1ccc(Sc2ccc(Cl)cc2)cc1
T/C [11]: 101 % of control
T/C [17]: 95 % of control
T/C [18]: 93 % of control

Cc1ccc(N=NN(C)C)cc1
T/C [12]: 113 % of control
T/C [13]: 115 % of control
T/C [10]: 106 % of control

CC(=O)Nc1nc(=O)n(CC(=O)c2cccs2)cc1F
T/C (dose: 6.25 mg/kg/injection, schedule: Q01DX009 (ip), vehicle: carboxymethylcellulose (CMC)): 100 % of control
T/C (dose: 12.5 mg/kg/injection, schedule: Q01DX009 (ip), vehicle: carboxymethylcellulose (CMC)): 99 % of control
T/C (dose: 25.0 mg/kg/injection, schedule: Q01DX009 (ip), vehicle: carboxymethylcellulose (CMC)): 94 % of control
T/C [4]: 96 % of control
T/C (dose: 50.0 mg/kg/injection, schedule: Q01DX009 (ip), vehicle: carboxymethylcellulose (CMC)): 102 % of control

Cc1cccc(C)c1NC(=O)C(Cl)c1ccccc1 (stereo not drawn)
T/C [5]: 103 % of control
T/C [6]: 93 % of control
T/C [16]: 100 % of control

F
T/C [14]: 105 % of control
T/C [15]: 107 % of control
T/C (dose: 12.5 mg/kg/injection, schedule: Q04DX003 (ip), vehicle: saline): 113 % of control
T/C [7]: 92 % of control
T/C (dose: 25.0 mg/kg/injection, schedule: Q04DX003 (ip), vehicle: saline): 100 % of control and 124 % of control
T/C (dose: 50.0 mg/kg/injection, schedule: Q04DX003 (ip), vehicle: saline): 94 % of control

CCOc1ccc(NC(=O)COc2ccc(Cl)cc2)cc1
T/C [5]: 103 % of control
T/C [6]: 109 % of control
T/C [16]: 93 % of control

CNNC(=O)NC
T/C (dose: 1.56 mg/kg/injection, schedule: Q01DX009 (ip), vehicle: saline): 87 % of control
T/C (dose: 3.12 mg/kg/injection, schedule: Q01DX009 (ip), vehicle: saline): 95 % of control
T/C [15]: 100 % of control

O=C(CCl)Nc1cc(C(F)(F)F)ccc1Cl
T/C (dose: 6.25 mg/kg/injection, schedule: Q01DX009 (ip), vehicle: saline with Tween-80): 103 % of control
T/C [12]: 95 % of control
T/C [13]: 93 % of control

Cc1cc(C)c(COCc2cc(C)c(C)cc2C)cc1C
T/C (dose: 50.0 mg/kg/injection, schedule: Q01DX009 (ip), vehicle: water): 95 % of control
T/C (dose: 100.0 mg/kg/injection, schedule: Q01DX009 (ip), vehicle: water): 95 % of control

COc1cccc(NC(=O)Nc2ccccc2Cl)c1
T/C (dose: 100.0 mg/kg/injection, schedule: Q01DX009 (ip), vehicle: gum acacia): 96 % of control
T/C (dose: 200.0 mg/kg/injection, schedule: Q01DX009 (ip), vehicle: gum acacia): 96 % of control
T/C (dose: 400.0 mg/kg/injection, schedule: Q01DX009 (ip), vehicle: gum acacia): 88 % of control
